Measured values published in publication PMC10709440, “High-throughput ligand profile characterization in novel cell lines expressing seven heterologous insect olfactory receptors for the detection of volatile plant biomarkers” (Scientific Reports, 2023).

Tests used:
Drosophila OR71a = target: T1, Drosophila OR71a (Drosophila melanogaster, UniProt Q9VUK5); assay: Calcium ion fluorescence (GCaMP6) assay, OR71a stable HEK293 cell line; type: cell-based; conditions: for OR71a response (VUAA1-normalized) at 1 μM / OR71a response (VUAA1-normalized) at 10 μM / OR71a response (VUAA1-normalized) at 100 μM / Average response: OR71a cell line; for Average response: VUAA1-normalized response, mean of biological replicates
T1 construct: expressed in transfected cells
T1 sequence (Q9VUK5 1-378): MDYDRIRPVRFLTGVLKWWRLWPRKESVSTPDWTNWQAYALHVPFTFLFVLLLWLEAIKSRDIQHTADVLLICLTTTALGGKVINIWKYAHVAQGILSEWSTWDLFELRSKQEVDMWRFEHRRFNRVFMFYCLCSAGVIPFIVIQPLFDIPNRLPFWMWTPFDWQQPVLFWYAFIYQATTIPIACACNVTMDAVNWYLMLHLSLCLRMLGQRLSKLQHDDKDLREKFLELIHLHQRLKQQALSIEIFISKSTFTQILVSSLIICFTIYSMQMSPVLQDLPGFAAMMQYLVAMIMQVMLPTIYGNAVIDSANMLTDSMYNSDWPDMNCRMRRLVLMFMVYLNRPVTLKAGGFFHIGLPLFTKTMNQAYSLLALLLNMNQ
T1 sequence (Q9VNB5 1-486 partner): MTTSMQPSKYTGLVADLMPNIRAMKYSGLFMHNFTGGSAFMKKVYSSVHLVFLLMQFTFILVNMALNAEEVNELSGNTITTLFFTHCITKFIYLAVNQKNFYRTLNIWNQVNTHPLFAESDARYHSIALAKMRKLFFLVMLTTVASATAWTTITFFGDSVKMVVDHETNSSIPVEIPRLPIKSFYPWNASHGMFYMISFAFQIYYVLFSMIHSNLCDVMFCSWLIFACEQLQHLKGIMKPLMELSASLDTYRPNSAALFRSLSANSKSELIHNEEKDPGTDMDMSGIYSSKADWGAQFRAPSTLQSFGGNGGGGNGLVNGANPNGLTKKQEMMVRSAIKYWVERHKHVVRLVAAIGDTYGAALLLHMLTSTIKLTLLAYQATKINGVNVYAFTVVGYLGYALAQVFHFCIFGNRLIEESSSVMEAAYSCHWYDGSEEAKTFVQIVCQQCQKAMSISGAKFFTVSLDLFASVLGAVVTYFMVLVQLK
Outline: (§1)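 HEK293 lines stably expressing each Drosophila OR with GCaMP6, doxycycline-induced (1 μg/mL) 48 or 72 h. Fluorescence recorded 5 s baseline then 30 s after VOC injection at pH 7.3; ΔF=(FMAX−F0)/F0, normalized to 50 µM VUAA1 response per line, triplicate wells averaged; concentration series 0.01–100 μM.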

Drosophila OR47a = target: T2, Drosophila OR47a (Drosophila melanogaster, UniProt P81921); assay: Calcium ion fluorescence (GCaMP6) assay, OR47a stable HEK293 cell line; type: cell-based; conditions: for OR47a response (VUAA1-normalized) at 1 μM / OR47a response (VUAA1-normalized) at 10 μM / OR47a response (VUAA1-normalized) at 100 μM / Average response: OR47a cell line; for Average response: mean of biological replicates
T2 construct: expressed in transfected cells
T2 sequence (P81921 1-385): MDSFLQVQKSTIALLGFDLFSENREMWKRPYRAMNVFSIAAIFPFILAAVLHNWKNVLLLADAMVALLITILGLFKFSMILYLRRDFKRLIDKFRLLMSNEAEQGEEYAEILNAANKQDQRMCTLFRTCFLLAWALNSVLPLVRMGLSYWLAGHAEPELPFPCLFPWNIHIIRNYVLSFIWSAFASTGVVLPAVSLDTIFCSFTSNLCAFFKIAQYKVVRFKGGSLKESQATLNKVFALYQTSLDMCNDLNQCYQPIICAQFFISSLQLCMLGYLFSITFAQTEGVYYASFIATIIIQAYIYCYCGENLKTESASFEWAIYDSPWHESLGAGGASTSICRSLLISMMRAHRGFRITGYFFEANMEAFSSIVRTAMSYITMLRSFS
T2 sequence (Q9VNB5 1-486 partner): T1 sequence (Q9VNB5 1-486 partner)
Outline: as §1

[1] = ligand concentration 1 (unit not given), 0.05 threshold, values below shown as 0
[2] = ligand concentration 10 (unit not given), 0.05 threshold, values below shown as 0
[3] = ligand concentration 100 (unit not given), 0.05 threshold, values below shown as 0
[4] = HEK293, read-out: OR47a Average response (VUAA1-normalized)
[5] = concentration 1, normalized fluorescence change, values below 0.05 threshold given as 0
[6] = concentration 10, normalized fluorescence change, values below 0.05 threshold given as 0
[7] = concentration 100, normalized fluorescence change, values below 0.05 threshold given as 0

Row | Molecule | OR71a response (VUAA1-normalized) at 1 μM (Drosophila OR71a; VOC concentration 1 μM) | OR71a response (VUAA1-normalized) at 10 μM (Drosophila OR71a; VOC concentration 10 μM) | OR71a response (VUAA1-normalized) at 100 μM (Drosophila OR71a; VOC concentration 100 μM) | Average response (Drosophila OR71a; cc. 1 µM) | Average response (Drosophila OR71a; cc. 10 µM) | Average response (Drosophila OR71a; cc. 100 µM) | DF norm AVERAGE OR71a (Drosophila OR71a; [1]) | DF norm AVERAGE OR71a (Drosophila OR71a; [2]) | DF norm AVERAGE OR71a (Drosophila OR71a; [3]) | OR47a response (VUAA1-normalized) at 1 μM (Drosophila OR47a; VOC concentration 1 μM) | OR47a response (VUAA1-normalized) at 10 μM (Drosophila OR47a; VOC concentration 10 μM) | OR47a response (VUAA1-normalized) at 100 μM (Drosophila OR47a; VOC concentration 100 μM) | Average response (Drosophila OR47a; odorant cc. 1 µM) | Average response (Drosophila OR47a; odorant cc. 10 µM) | Average response (Drosophila OR47a; odorant cc. 100 µM) | DF norm AVERAGE OR47a (Drosophila OR47a; [1]) | DF norm AVERAGE OR47a (Drosophila OR47a; [2]) | DF norm AVERAGE OR47a (Drosophila OR47a; [3]) | further results
1 | CCCCCCCCCCCCCC [tetradecane] | 0.00 | 0.00 | 0.00 | 0.0218 | 0.0215 | 0.0462 | 0 | 0 | 0 | 0.00 | 0.00 | 0.00 | 0.02 | 0.03 | 0.00 | 0 | 0 | 0 | 
2 | Cc1ccccc1 [toluene] | 0.00 | 0.00 | 0.00 | 0.00 | 0.00 | 0.00 | 0 | 0 | 0 | 0.00 | 0.00 | 0.00 | 0.00 | 0.0267 | 0.00 | 0 | 0 | 0 | 
3 | CCCCCCCCCCC [undecane] | 0.00 | 0.00 | 0.00 | 0.00 | 0.00 | 0.00847 | 0 | 0 | 0 | 0.00 | 0.00 | 0.00 | 0.00 | 0.00 | 0.00 | 0 | 0 | 0 | 
4 | CC/C=C\CCOC(C)=O [z3-hexenyl acetate] |  |  |  | 0.00 | 0.00 | 0.00 | 0 | 0 | 0 |  |  |  | 0.35 | 0.67 | 0.76 | 0.3542 | 0.669 | 0.7586 | activation at 1 µM (Drosophila OR47a; [4]): 35%; activation at 10 µM (Drosophila OR47a; [4]): 67%; activation at 100 µM (Drosophila OR47a; [4]): 76%
5 | CC1=CCC23CC1C(C)(C)C2CCC3C (stereo not drawn) [α-funebrene] | 0.00 | 0.00 | 0.00 | 0.00 | 0.00 | 0.00 | 0 | 0 | 0 | 0.00 | 0.00 | 0.00 | 0.00 | 0.00 | 0.00 | 0 | 0 | 0 | 
6 | (+)-beta-cedrene |  |  |  | 0.0243 | 0.03 | 0.00 |  |  |  |  |  |  | 0.00 | 0.00 | 0.00 |  |  |  | OR71a response (VUAA1-normalized response) (Drosophila OR71a; VOC concentration 1 μM): 0.00; OR71a response (VUAA1-normalized response) (Drosophila OR71a; VOC concentration 10 μM): 0.00; OR71a response (VUAA1-normalized response) (Drosophila OR71a; VOC concentration 100 μM): 0.00; DF norm AVERAGE OR71a (Drosophila OR71a; [5]): 0; DF norm AVERAGE OR71a (Drosophila OR71a; [6]): 0; DF norm AVERAGE OR71a (Drosophila OR71a; [7]): 0; OR47a response (VUAA1-normalized response) (Drosophila OR47a; VOC concentration 1 μM): 0.00; OR47a response (VUAA1-normalized response) (Drosophila OR47a; VOC concentration 10 μM): 0.00; OR47a response (VUAA1-normalized response) (Drosophila OR47a; VOC concentration 100 μM): 0.00; DF norm AVERAGE OR47a (Drosophila OR47a; [5]): 0; DF norm AVERAGE OR47a (Drosophila OR47a; [6]): 0; DF norm AVERAGE OR47a (Drosophila OR47a; [7]): 0
7 | (-)-alpha-cedrene |  |  |  | 0.00 | 0.043 | 0.00 |  |  |  |  |  |  | 0.00 | 0.00 | 0.02 |  |  |  | OR71a response (VUAA1-normalized response) (Drosophila OR71a; VOC concentration 1 μM): 0.00; OR71a response (VUAA1-normalized response) (Drosophila OR71a; VOC concentration 10 μM): 0.00; OR71a response (VUAA1-normalized response) (Drosophila OR71a; VOC concentration 100 μM): 0.00; DF norm AVERAGE OR71a (Drosophila OR71a; [5]): 0; DF norm AVERAGE OR71a (Drosophila OR71a; [6]): 0; DF norm AVERAGE OR71a (Drosophila OR71a; [7]): 0; OR47a response (VUAA1-normalized response) (Drosophila OR47a; VOC concentration 1 μM): 0.00; OR47a response (VUAA1-normalized response) (Drosophila OR47a; VOC concentration 10 μM): 0.00; OR47a response (VUAA1-normalized response) (Drosophila OR47a; VOC concentration 100 μM): 0.00; DF norm AVERAGE OR47a (Drosophila OR47a; [5]): 0; DF norm AVERAGE OR47a (Drosophila OR47a; [6]): 0; DF norm AVERAGE OR47a (Drosophila OR47a; [7]): 0
